Laboratory results: patent US7375083B2, “Pharmaceutical compositions for prevention of overdose or abuse” (Shire LLC, priority 2003, dated 2008)
Several values for one entry are separate records, joined by “and”; a condition that tells them apart may be missing. Equal values may be shown once. Read-outs that look alike come from different tables or passages of the source.

Assay: Crossover pharmacokinetics in dogs, oral vs 30-min intravenous infusion, LC-MS/MS
Type: in vivo, male beagle dogs
Conditions: for AUC(0-inf): read-out: AUC(inf) of L-lysine-d-amphetamine; for Cmax: read-out: Cmax of L-lysine-d-amphetamine; for MRT: read-out: MRT of L-lysine-d-amphetamine; for Vd: read-out: Vss of L-lysine-d-amphetamine; for half-life: read-out: t1/2 of L-lysine-d-amphetamine (converted)
Source text: This was a non-randomized, two-treatment crossover study. All animals were maintained on their normal diet and were fasted overnight prior to each dose administration. L-lysine-d-amphetamine dose was based on the body weight measured on the morning of each dosing day. The actual dose delivered was based on syringe weight before and after dosing. Serial blood samples were obtained from each animal by direct venipuncture of a jugular vein using vacutainer tubes containing sodium heparin as the anticoagulant. Derived plasma samples were stored frozen until shipment to the Quest Pharmaceutical Services, Inc. (Newark, Del.). Pharmacokinetic analysis of the plasma assay results was conducted by Calvert. Animals were treated as follows:
Oral: The test article was administered to each animal via a single oral gavage. On Day 1, animals received the oral dose by gavage using an esophageal tube attached to a syringe. Dosing tubes were flushed with approximately 20 mL tap water to ensure the required dosing solution was delivered.
Intravenous: On Day 8, animals received L-lysine-d-amphetamine as a single 30-minute intravenous infusion into a cephalic vein.
Blood: Serial blood samples (2 mL) were collected using venipuncture tubes containing sodium heparin. Blood samples were taken at 0, 0.25, 0.5, 1, 2, 4, 8, 12, 24, 48, and 72 hours post-oral dosing. […] Collected blood samples were chilled immediately.
Plasma: Plasma samples were obtained by centrifugation of blood samples. Duplicate plasma samples (about 0.2 mL each) were transferred into prelabeled plastic vials and stored frozen at approximately −70° C.
Microsoft Excel (Version 6, Microsoft Corp., Redmond, Wash.) was used for calculation of mean plasma concentration and graphing of the plasma concentration-time data. Pharmacokinetic analysis (non-compartmental) was performed using the WinNonlin® software program (Version 4.1, Pharsight, Inc. Mountain View, Calif.). The maximum concentration, Cmax, and the time to Cmax, Tmax, were observed values. The area under the plasma concentration-time curve (AUC) was determined using linear-log trapezoidal rules. The apparent terminal rate constant (λz) was derived using linear least-squares regression with visual inspection of the data to determine the appropriate number of points (minimum of 3 data points) for calculating λz. The AUC(0-inf) was calculated as the sum of AUC(0-t) and Cpred/λz, where Cpred was the predicted concentration at the time of the last quantifiable concentration. The plasma clearance (CL/F) was determined as the ratio of Dose/AUC (0-inf). The mean residence time (MRT) was calculated as the ratio of AUMC(0-inf)/AUC (0-inf), where AUMC(0-inf) was the area under the first moment curve from the time zero to infinity. The volume of distribution at steady state (Vss) was estimated as CL*MRT. Half-life was calculated as In2/λz. The oral bioavailability (F) was calculated as the ratio of AUC(0-inf) following oral dosing to AUC(0-inf) following intravenous dosing. Descriptive statistics (mean and standard deviation) of the pharmacokinetic parameters were calculated using Microsoft Excel.
Blood samples were collected up to 24 and 72 hour after the intravenous and oral does, respectively. Plasma samples were analyzed using a LC-MS/MS assay which provided an LLOQ of 1 ng/mL for both analytes.

[1] = male beagle dogs 1-3 and Mean, 30-min iv infusion, 2 mg/kg/h (free form), 2 mg/kg
[2] = male beagle dogs 1-3 and Mean, oral, 2 mg/kg (free form), 2 mg/kg
[3] = male, beagle, dog, plasma, iv, 1 mg/kg, male beagle dog, IV, 1 mg/kg d-amphetamine base, mean
[4] = male, beagle, dog, plasma, iv, 2 mg/kg, male beagle dogs 1-3 and Mean, 30-min iv infusion, 2 mg/kg/h (free form)
[5] = male, beagle, dog, plasma, po, 1 mg/kg, male beagle dog, oral, 1 mg/kg d-amphetamine base, mean

CC(Cc1ccccc1)NC(=O)C(N)CCCCN [L-lysine-d-amphetamine, 2,6-diaminohexanoic acid-(1-methyl-2-phenylethyl)-amide]
Tmax (dog, plasma, male beagle dogs 1-3 and median, 30-min iv infusion, 2 mg/kg/h (free form), read-out: Tmax of L-lysine-d-amphetamine): 29.4 min | Tmax (dog, plasma, male beagle dogs 1-3 and median, oral, 2 mg/kg (free form), read-out: Tmax of L-lysine-d-amphetamine): 30 min | AUC(0-t) of L-lysine-d-amphetamine [1]: 898.2 ng·h/mL | AUC(inf) of L-lysine-d-amphetamine [1]: 900.2 ng·h/mL and 1076.1 ng·h/mL | CL of L-lysine-d-amphetamine [1]: 37.03 mL/min/kg and 30.98 mL/min/kg | Cmax of L-lysine-d-amphetamine [1]: 1470.3 ng/mL | MRT of L-lysine-d-amphetamine [1]: 21.6 min and 19.2 min | Vss of L-lysine-d-amphetamine [1]: 0.8074 L/kg | t1/2 of L-lysine-d-amphetamine [1]: 43.2 min | AUC(0-t) of L-lysine-d-amphetamine [2]: 318.0 ng·h/mL | AUC(inf) of L-lysine-d-amphetamine [2]: 312.0 ng·h/mL and 277.1 ng·h/mL | CL/F of L-lysine-d-amphetamine [2]: 106.8 mL/min/kg and 120.3 mL/min/kg | F of L-lysine-d-amphetamine [2]: 34.3% and 34.0% and 30.8% | MRT of L-lysine-d-amphetamine [2]: 40.8 min | t1/2 of L-lysine-d-amphetamine [2]: 27 min and 14.4 min | AUC(0-inf) [3]: 964 ng·h/mL | Cmax [3]: 1650 ng/mL | MRT [3]: 19.8 min | Vd [3]: 0.689 L/kg | half-life [3]: 52.8 min | Tmax (male, beagle, dog, plasma, iv, 1 mg/kg, read-out: Tmax of L-lysine-d-amphetamine (median)): 29.4 min | AUC(0-t) (male, beagle, dog, plasma, iv, 2 mg/kg, male beagle dogs 1-3 and Mean, 30-min iv infusion, 2 mg/kg/h (free form), read-out: AUC(0-t) of L-lysine-d-amphetamine): 914 ng·h/mL | AUC(0-inf) [4]: 917 ng·h/mL | clearance (male, beagle, dog, plasma, iv, 2 mg/kg, male beagle dogs 1-3 and Mean, 30-min iv infusion, 2 mg/kg/h (free form), read-out: CL of L-lysine-d-amphetamine (converted)): 36.4 mL/min/kg | Cmax [4]: 1650 ng/mL | MRT [4]: 18 min | Vd [4]: 0.656 L/kg | half-life [4]: 63 min | AUC(0-inf) [5]: 319 ng·h/mL | CL/F (male, beagle, dog, plasma, po, 1 mg/kg, male beagle dog, oral, 1 mg/kg d-amphetamine base, mean, read-out: CL/F of L-lysine-d-amphetamine (converted)): 106 mL/min/kg | Cmax [5]: 328 ng/mL | MRT [5]: 48.6 min | half-life [5]: 23.4 min | bioavailability (male, beagle, dog, plasma, po, 1 mg/kg, read-out: F (absolute oral bioavailability) of L-lysine-d-amphetamine): 33% | Tmax (male, beagle, dog, plasma, po, 1 mg/kg, read-out: Tmax of L-lysine-d-amphetamine (median)): 30 min
